Experimental data published in patent US5922759A, “Butenolide endothelin antagonists” (Warner-Lambert Company, priority 1997, dated 1999).
Like-named read-outs stand apart in the source and are kept apart here. Where a SMILES comes first, the peptide text is derived from it. Where no end group is shown, it is not given here. [ ]: non-standard residue; d: D form.

What was measured:
[1] = test system: ETA; conditions: mouse endotoxic shock; cited from earlier work
[2] = test system: cerebral vasospasm; conditions: rabbit; cited from earlier work
[3] = test system: cerebral vasospasm; conditions: rat, cited from earlier work
[4] = target: T1, ETA (rabbit femoral artery) (Oryctolagus cuniculus, UniProt A5A8K3); assay: Antagonism of ET-1 stimulated vasoconstriction (VERA-A) in the rabbit femoral artery; conditions: ET-1 agonist, antagonist added 30 minutes prior
T1 construct: Femoral and pulmonary arteries were isolated, cleaned of connective tissue, and cut into 4-mm rings; from tissue; host or cells: endothelium-denuded femoral artery rings of male New Zealand rabbits
T1 sequence (A5A8K3 21-427): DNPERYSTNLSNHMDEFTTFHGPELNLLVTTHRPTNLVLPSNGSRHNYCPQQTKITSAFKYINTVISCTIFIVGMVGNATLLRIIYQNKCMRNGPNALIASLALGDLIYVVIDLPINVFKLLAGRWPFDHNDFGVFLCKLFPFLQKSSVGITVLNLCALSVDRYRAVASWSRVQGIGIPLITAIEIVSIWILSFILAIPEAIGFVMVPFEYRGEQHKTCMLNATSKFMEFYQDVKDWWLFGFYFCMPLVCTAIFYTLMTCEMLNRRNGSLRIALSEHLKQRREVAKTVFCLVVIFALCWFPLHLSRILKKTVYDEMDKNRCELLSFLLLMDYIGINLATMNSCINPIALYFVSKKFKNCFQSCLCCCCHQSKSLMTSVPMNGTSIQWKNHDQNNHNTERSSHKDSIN
Procedure: Male New Zealand rabbits were killed by cervical dislocation and exsanguination. Femoral and pulmonary arteries were isolated, cleaned of connective tissue, and cut into 4-mm rings. The endothelium was denuded by placing the rings over hypodermic tubing (32 gauge for femoral rings and 28 gauge for pulmonary rings, Small Parts, Inc, Miami, Fla.) and gently rolling them. […] Resting tension was adjusted to 3.0 g for femoral and 4.0 g pulmonary arteries; the rings were left for 90 minutes to equilibrate.

[5] = target: T2, endothelin receptor ETA (Homo sapiens, UniProt P25101); type: binding; conditions: Human cloned receptor data (footnote c); read-out: ERBA-A IC50
T2 sequence (P25101 21-427): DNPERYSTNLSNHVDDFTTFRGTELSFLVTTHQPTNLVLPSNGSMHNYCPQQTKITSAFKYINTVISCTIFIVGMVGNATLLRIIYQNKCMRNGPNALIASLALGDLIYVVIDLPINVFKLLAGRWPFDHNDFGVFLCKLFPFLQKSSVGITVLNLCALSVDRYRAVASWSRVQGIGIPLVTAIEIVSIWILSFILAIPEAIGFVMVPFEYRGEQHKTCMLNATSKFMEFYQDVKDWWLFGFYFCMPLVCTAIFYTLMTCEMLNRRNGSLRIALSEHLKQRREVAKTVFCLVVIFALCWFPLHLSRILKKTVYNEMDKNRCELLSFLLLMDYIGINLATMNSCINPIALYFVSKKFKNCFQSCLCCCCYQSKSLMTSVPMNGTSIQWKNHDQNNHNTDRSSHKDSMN

[6] = target: T3, human ETB receptor (Homo sapiens, UniProt P24530); type: binding, human (method text also: rat cerebellar membranes); conditions: Human cloned receptor data (footnote c); read-out: ERBA-B IC50
T3 construct: expressed in transfected cells; host or cells: CHO-K1
T3 sequence (P24530 27-442): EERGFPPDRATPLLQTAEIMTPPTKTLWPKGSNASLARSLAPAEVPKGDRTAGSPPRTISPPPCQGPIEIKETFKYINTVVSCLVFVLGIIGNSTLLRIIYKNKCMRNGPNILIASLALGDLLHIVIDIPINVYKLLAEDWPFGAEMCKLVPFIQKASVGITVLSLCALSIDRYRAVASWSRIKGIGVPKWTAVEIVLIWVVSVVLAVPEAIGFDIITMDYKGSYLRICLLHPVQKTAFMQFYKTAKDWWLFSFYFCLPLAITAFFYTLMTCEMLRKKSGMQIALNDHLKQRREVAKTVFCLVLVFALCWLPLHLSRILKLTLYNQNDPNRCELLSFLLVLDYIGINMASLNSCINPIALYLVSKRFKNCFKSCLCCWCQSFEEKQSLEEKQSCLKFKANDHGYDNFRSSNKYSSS
Text: The compounds of Formula I are valuable antagonists of endothelin.
ENDOTHELIN RECEPTOR BINDING ASSAY-B (ERBA-B) [^125 I]-ET-1 BINDING IN RAT CEREBELLAR MEMBRANES
materials and Terms Used:
Count filters for radioactivity in gamma counter.
The above process has also been modified by using human recombinant CHO-K1 cells.
The tissue used for human ETB was recombinant human ETB receptor expressed in CHO-K1 cells (chinese hamster ovary cells). The gene for human ETB receptor was cloned and inserted into the pRc-CMW expression vector, then transfected into CHO-K1 cells by electroporation. For binding assays, membranes (0.7 mg protein) of CHO-K1 cells expressing recombinant human ETB receptor were used.
^c Human cloned receptor data

[7] = test system: brain; conditions: new model of local ischemia in the brain; cited from earlier work
[8] = test system: central nervous system; conditions: intracerebroventricular, rats; cited from earlier work
[9] = test system: basilar artery vasoconstriction; conditions: canine two-hemorrhage model, after 7 days; cited from earlier work

## CC(C)C[C@@H]1NC(=O)[C@@H](C(C)C)NC(=O)[C@@H]2CCCN2C(=O)[C@@H](CC(=O)O)NC(=O)[C@@H](Cc2c[nH]c3ccccc23)NC1=O [BQ-123] (cyclo(L[dW][dD]P[dV]))
[1]
  survival rate: significantly increased the survival rate
[2]
  effect on early cerebral vasospasm following SAH: prevents early cerebral vasospasm
[3]
  effect on early cerebral vasospasm following SAH: prevents early cerebral vasospasm

## COc1ccc(C2(OC(=O)N[C@@H](C)c3ccccc3)OC(=O)C(c3ccc4c(c3)OCO4)=C2Cc2ccccc2)cc1 (stereo partly shown) [Example 1, (1-Phenyl-ethyl)-carbamic acid-4-benzo[1,3]dioxol-5-yl-3-benzyl-2-(4-methoxy-phenyl)-5-oxo-2,5-dihydro-furan-2-yl ester]
[4]
  VERA-A pA2: 6.1

## COc1ccc(C2(OC(=O)N[C@@H](C)c3cccc4ccccc34)OC(=O)C(c3ccc4c(c3)OCO4)=C2Cc2cc(OC)c(OC)c(OC)c2)cc1 (stereo partly shown) [Example 2, (1-Naphthalen-1-yl-ethyl)-carbamic acid-4-benzo[1,3]dioxol-5-yl-2-(4-methoxy-phenyl)-5-oxo-3-(3,4,5-trimethoxy-benzyl)-2,5-dihydro-furan-2-yl ester]
[5]
  IC50: 1 nM

## CCOC(=O)CNC(=O)OC1(c2ccc(OC)cc2)OC(=O)C(c2ccc3c(c2)OCO3)=C1Cc1cc(OC)c(OC)c(OC)c1 (stereo not shown) [Example 3, [4-Ben zo[1.3]dioxol-5-yl-2-(4-methoxy-phenyl)-5-oxo-3-(3,4,5-trimethoxy-benzyl)-2,5-dihydro-furan-2-yloxycarbonylamino]-acetic acid ethyl ester]
[4]; read-out: VERA-A pA2 (converted)
  Kb: 50.1 nM
[5]
  IC50: 0.35 nM
[6]
  IC50: 1800 nM

## COc1cccc(Oc2c(NS(=O)(=O)c3ccc(C(C)(C)C)cc3)ncnc2OCCO)c1 [Ro 46-2005]
[3]; SAH
  effect on systemic arterial blood pressure: no significant effect on systemic arterial blood pressure
[3]
  effect on early cerebral vasospasm following SAH: prevent early cerebral vasospasm

## ET-1: a potent vasoconstrictor, is a 21 amino acid bicyclic peptide (CSCSSLMDKECVYFCHLDIIW; ends and bridges not checked; also: bicyclic peptide; UniProt P05305 53-73, looked up)
[7]
  lesion development: induced lesion development
[8]
  behavioral effects: evoke several behavioral effects

## FR 139317
[9]
  inhibition of vasoconstriction of the basilar artery: significantly inhibited the vasoconstriction of the basilar artery after 7 days
